One block for each compound: values may come before it.
Experiments:
[1] = Chemical stability of compound in PBS assessed as compound remaining measured after 6 days by HPLC UV analysis; type: physicochemical; conditions: buffer, 144 h; time 6 day
[2] = tested on: Hepatitis B virus; test: Antiviral activity against HBV genotype D in immuno-competent C57BL/6 mouse model of chronic HBV assessed as log10 reduction in HBsAg production at 10 mg/kg, po qd for 7 days measured 24 hrs post-last dose by EIA relative to control; type: functional; conditions: time 8 day
[3] = Ratio of total drug concentration in liver to plasma in Sprague-Dawley rat at 10 mg/kg, po measured for 24 hrs by LC-MS/MS analysis; type: ADME, organism-based; conditions: liver and plasma
[4] = target: CYP2C19 (Homo sapiens, UniProt P33261); test: Inhibition of CYP2C19 in human liver microsomes using S-mephenytoin as substrate preincubated for 30 min followed by NADPH addition measured after 12 mins by LC-MS/MS analysis; type: ADME, Microsome; conditions: human, liver microsomes, probe S-mephenytoin
[5] = target: CYP2D6 (Homo sapiens, UniProt P10635); test: Inhibition of CYP2D6 in human liver microsomes using dextromethorphan as substrate preincubated for 30 min followed by NADPH addition measured after 12 mins by LC-MS/MS analysis; type: ADME, Microsome; conditions: human, liver microsomes, probe dextromethorphan
[6] = target: CYP3A4 (Homo sapiens, UniProt P08684); test: Inhibition of CYP3A4 in human liver microsomes using midazolam as substrate preincubated for 30 min followed by NADPH addition measured after 12 mins by LC-MS/MS analysis; type: ADME, Microsome; conditions: human, liver microsomes, probe midazolam
[7] = Drug concentration in Sprague-Dawley rat heart at 10 mg/kg, po measured for 24 hrs by LC-MS/MS analysis; type: ADME, organism-based; conditions: read-out: Ct
[8] = Ratio of drug concentration in liver to plasma of Sprague-Dawley rat at 10 mg/kg, po measured for 24 hrs by LC-MS/MS analysis; type: ADME, organism-based; conditions: liver and plasma
[9] = Ratio of drug concentration in heart to plasma of Sprague-Dawley rat at 10 mg/kg, po measured for 24 hrs by LC-MS/MS analysis; type: ADME, organism-based; conditions: heart and plasma
[10] = Total Cmax in Beagle dog at 5 mg/kg, po qd measured after 91 days; type: ADME, organism-based, Canis lupus familiaris; conditions: in vivo, time 91 day
[11] = Free Cmax in Beagle dog at 5 mg/kg, po qd measured after 91 days; type: ADME, organism-based, Canis lupus familiaris; conditions: in vivo, 2184 h, time 91 day
[12] = Total AUC (0 to 24 hrs) in Beagle dog at 5 mg/kg, po qd measured after 91 days; type: ADME, organism-based, Canis lupus familiaris; conditions: in vivo, time 91 day
[13] = Free AUC (0 to 24 hrs) in Beagle dog at 5 mg/kg, po qd measured after 91 days; type: ADME, organism-based, Canis lupus familiaris; conditions: in vivo, 2184 h, time 91 day
[14] = Free AUC (0 to 24 hrs) in Beagle dog at 15 mg/kg, po qd measured after 91 days; type: ADME, organism-based, Canis lupus familiaris; conditions: in vivo, 2184 h, time 91 day
[15] = Total AUC (0 to 24 hrs) in Beagle dog at 45 mg/kg, po qd measured after 91 days; type: ADME, organism-based, Canis lupus familiaris; conditions: in vivo, time 91 day
[16] = Free Cmax in Beagle dog at 60 mg/kg, po qd measured after 91 days; type: ADME, organism-based, Canis lupus familiaris; conditions: in vivo, 2184 h, time 91 day
[17] = Toxicity in Beagle dog assessed as uncoordinated movements at 15 mg/kg, po qd measured after 14 days; type: organism-based, Canis lupus familiaris; conditions: in vivo, 336 h, time 14 day
[18] = Toxicity in Beagle dog assessed as splayed limbs at 60 mg/kg, po qd measured after 34 days; type: organism-based, Canis lupus familiaris; conditions: in vivo, 816 h, time 34 day
[19] = Toxicity in Beagle dog assessed as animal death at 60 mg/kg, po qd measured after 45 days; type: organism-based, Canis lupus familiaris; conditions: in vivo, 1080 h, time 45 day
[20] = target: T1, Cytochrome P450 1A2 (Homo sapiens, UniProt P05177); test: Inhibition of CYP1A2 in human liver microsomes using phenacetin as substrate preincubated for 30 min followed by NADPH addition measured after 12 mins by LC-MS/MS analysis; type: ADME, Microsome
T1 sequence (P05177 whole entry): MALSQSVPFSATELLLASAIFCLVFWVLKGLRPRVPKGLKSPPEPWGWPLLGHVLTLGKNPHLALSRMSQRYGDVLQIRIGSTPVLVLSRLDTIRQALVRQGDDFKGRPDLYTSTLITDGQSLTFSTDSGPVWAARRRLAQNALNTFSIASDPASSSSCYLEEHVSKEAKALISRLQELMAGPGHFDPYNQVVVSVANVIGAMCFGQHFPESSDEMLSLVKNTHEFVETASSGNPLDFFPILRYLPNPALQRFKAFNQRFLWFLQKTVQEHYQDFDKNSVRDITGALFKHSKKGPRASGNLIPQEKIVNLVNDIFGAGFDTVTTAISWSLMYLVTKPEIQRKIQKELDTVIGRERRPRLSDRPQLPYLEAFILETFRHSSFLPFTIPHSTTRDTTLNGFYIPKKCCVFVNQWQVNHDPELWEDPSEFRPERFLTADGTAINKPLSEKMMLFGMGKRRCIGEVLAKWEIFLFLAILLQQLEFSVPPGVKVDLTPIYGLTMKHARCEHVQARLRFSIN

[21] = target: Cytochrome P450 3A4 (Homo sapiens, UniProt P08684); test: Inhibition of CYP3A4 in human liver microsomes using testosterone as substrate preincubated for 30 min followed by NADPH addition measured after 12 mins by LC-MS/MS analysis; type: ADME, Microsome
[22] = Drug concentration in Sprague-Dawley rat liver at 5 mg/kg, po measured for 24 hrs by LC-MS/MS analysis; type: ADME, organism-based; conditions: read-out: Ct
[23] = Ratio of drug concentration in kidney to plasma of Sprague-Dawley rat at 5 mg/kg, po measured for 24 hrs by LC-MS/MS analysis; type: ADME, organism-based; conditions: kidney and plasma
[24] = tested on: Hepatitis B virus; test: Antiviral activity against HBV infected in human primary hepatocytes assessed as reduction in HBV DNA production pre-infected cells with virus followed by inoculum removal and subsequent addition of compounds with replenishment on days 4,7,9,11 and 14 post-infection measured after 16 days; type: functional, organism-based; conditions: Hepatocyte, 384 h
[25] = target: Voltage-gated inwardly rectifying potassium channel KCNH2 (Homo sapiens, UniProt Q12809); test: Inhibition of hERG; type: toxicity
[26] = Total AUC (0 to 24 hrs) in Beagle dog at 15 mg/kg, po qd measured after 60 days; type: ADME, organism-based, Canis lupus familiaris; conditions: in vivo, time 60 day
[27] = Free AUC (0 to 24 hrs) in Beagle dog at 15 mg/kg, po qd measured after 60 days; type: ADME, organism-based, Canis lupus familiaris; conditions: in vivo, 1440 h, time 60 day
[28] = Free AUC (0 to 24 hrs) in Beagle dog at 45 mg/kg, po qd measured after 60 days; type: ADME, organism-based, Canis lupus familiaris; conditions: in vivo, 1440 h, time 60 day
[29] = Toxicity in Beagle dog assessed as splayed limbs at 15 to 45 mg/kg, po qd measured after 60 days; type: organism-based, Canis lupus familiaris; conditions: in vivo, 1440 h, dose 15-45 mg/kg, time 60 day
[30] = Toxicity in male Beagle dog assessed as decrease in body weight at 15 to 45 mg/kg, po qd measured for 60 days; type: organism-based, Canis lupus familiaris; parameters: scale not given: the % may be the effect or the level left; conditions: in vivo, 1440 h, dose 15-45 mg/kg, time 60 day
[31] = Toxicity in female Beagle dog assessed as change in body weight at 15 to 45 mg/kg, po qd measured for 60 days; type: organism-based, Canis lupus familiaris; conditions: in vivo, 1440 h, dose 15-45 mg/kg, time 60 day
[32] = Toxicity in female Beagle dog assessed as fold decrease in calcium level at 15 to 45 mg/kg, po qd measured for 60 days; type: organism-based, Canis lupus familiaris; parameters: scale not given: the % may be the effect or the level left; conditions: in vivo, 1440 h, dose 15-45 mg/kg, time 60 day

Sequence of Cytochrome P450 3A4 (P08684 whole entry): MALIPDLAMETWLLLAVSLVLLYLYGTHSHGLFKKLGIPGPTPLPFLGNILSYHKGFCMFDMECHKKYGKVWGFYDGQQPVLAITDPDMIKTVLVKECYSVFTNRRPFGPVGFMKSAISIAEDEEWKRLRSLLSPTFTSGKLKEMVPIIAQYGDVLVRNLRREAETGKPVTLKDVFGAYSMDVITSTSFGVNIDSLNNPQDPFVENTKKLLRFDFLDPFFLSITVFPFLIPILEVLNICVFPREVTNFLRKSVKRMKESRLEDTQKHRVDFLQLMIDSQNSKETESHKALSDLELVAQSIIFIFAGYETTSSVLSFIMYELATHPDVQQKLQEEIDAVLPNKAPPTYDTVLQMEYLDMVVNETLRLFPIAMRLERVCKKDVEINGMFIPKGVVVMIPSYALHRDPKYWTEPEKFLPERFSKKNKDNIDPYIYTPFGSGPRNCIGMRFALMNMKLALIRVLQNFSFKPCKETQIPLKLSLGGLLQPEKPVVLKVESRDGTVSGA
Sequence of CYP3A4 (P08684 whole entry): as above
Sequence of CYP2C19 (P33261 whole entry): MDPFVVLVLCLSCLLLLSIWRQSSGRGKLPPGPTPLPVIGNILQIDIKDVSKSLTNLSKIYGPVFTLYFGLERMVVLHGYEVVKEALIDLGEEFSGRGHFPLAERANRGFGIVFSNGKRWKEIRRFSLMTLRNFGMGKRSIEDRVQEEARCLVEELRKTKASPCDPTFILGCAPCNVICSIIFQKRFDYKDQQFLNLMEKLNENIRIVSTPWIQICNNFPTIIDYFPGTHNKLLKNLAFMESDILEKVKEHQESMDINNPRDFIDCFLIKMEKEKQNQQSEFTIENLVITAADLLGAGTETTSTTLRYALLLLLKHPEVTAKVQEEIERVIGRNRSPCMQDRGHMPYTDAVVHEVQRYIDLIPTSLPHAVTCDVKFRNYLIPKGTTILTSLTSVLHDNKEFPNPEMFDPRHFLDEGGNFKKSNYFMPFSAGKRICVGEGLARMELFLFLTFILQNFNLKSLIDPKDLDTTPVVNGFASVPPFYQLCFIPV
Sequence of Voltage-gated inwardly rectifying potassium channel KCNH2 (Q12809 whole entry): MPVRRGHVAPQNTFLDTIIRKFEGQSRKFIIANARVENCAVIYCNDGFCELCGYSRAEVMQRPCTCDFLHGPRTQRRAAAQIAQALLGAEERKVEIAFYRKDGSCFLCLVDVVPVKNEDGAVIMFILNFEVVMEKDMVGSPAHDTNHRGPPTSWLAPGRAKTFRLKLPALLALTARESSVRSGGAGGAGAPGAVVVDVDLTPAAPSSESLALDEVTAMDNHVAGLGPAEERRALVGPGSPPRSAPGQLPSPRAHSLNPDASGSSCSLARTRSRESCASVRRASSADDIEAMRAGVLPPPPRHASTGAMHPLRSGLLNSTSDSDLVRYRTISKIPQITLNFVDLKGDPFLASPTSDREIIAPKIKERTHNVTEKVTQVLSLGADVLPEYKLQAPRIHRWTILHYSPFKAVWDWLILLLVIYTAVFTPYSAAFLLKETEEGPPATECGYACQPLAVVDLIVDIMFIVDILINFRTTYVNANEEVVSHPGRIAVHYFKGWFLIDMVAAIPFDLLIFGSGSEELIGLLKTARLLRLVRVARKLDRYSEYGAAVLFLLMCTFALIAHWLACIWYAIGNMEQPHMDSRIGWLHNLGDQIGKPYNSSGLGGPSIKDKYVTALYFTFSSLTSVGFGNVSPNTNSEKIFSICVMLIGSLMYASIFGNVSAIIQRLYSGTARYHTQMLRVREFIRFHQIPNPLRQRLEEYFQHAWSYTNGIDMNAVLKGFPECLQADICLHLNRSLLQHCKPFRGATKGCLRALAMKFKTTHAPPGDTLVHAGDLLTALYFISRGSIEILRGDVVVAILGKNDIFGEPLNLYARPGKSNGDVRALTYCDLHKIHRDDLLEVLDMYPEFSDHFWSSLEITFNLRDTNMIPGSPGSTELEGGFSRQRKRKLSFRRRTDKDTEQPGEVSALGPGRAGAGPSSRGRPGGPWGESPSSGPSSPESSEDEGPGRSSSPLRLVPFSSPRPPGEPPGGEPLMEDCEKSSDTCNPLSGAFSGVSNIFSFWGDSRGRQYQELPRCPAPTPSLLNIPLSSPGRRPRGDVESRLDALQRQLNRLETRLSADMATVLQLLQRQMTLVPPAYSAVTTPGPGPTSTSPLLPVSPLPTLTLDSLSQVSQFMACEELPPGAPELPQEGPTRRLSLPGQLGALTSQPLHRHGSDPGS
Sequence of CYP2D6 (P10635 whole entry): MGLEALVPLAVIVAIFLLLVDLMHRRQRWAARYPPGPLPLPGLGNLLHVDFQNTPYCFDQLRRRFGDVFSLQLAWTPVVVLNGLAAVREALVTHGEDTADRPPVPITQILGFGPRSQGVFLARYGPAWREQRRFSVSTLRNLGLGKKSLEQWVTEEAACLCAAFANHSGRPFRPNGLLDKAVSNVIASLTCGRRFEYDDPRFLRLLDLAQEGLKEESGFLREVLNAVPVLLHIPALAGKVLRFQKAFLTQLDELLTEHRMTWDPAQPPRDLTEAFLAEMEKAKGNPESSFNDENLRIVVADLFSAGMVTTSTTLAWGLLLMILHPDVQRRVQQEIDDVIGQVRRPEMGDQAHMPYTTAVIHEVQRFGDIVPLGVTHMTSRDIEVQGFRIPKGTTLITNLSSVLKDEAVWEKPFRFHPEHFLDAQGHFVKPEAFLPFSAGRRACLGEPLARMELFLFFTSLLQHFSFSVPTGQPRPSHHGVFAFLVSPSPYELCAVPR

SMILES: COCCCOc1cc2c(nc1OC)-c1cc(=O)c(C(=O)O)cn1[C@H](C(C)C)C2
Stability [1]: Stable
log(activity) [2]: 0.98
Kp at 24 h [3]: 3
IC50 at 12 min [4]: > 25 µM
IC50 at 12 min [5]: > 25 µM
IC50 at 12 min [6]: > 25 µM
concentration at 24 h [7]: 53 ng/g
Kp at 24 h [8]: 3.3
Kp at 24 h [9]: 1.9
Cmax [10]: 4680 ng/mL
fCmax [11]: 1740 ng/mL
AUC at 2184 h [12]: 10500 ng·h/mL
fAUC [13]: 3900 ng·h/mL
fAUC [14]: 11400 ng·h/mL
AUC at 2184 h [15]: 95200 ng·h/mL
fCmax [16]: 6940 ng/mL
Activity [17]: Toxic
Activity [18]: Toxic
Activity [19]: Toxic

IC50 [20]: > 25 µM
IC50 [21]: > 25 µM
concentration at 24 h [22]: 13900 ng/g
Kp at 24 h [23]: 7.9
AUC at 1440 h [26]: 3900 ng·h/mL
fAUC [27]: 1830 ng·h/mL
fAUC [28]: 3100 ng·h/mL
SMILES: COc1cc(OC(F)F)c2nc3c(n2c1)C[C@@H](C(C)(C)C)c1cc(C(=O)O)c(=O)[nH]c1-3
EC50 [24]: 0.0085 µM
IC50 [25]: > 30 µM
Activity [29]: Non-Toxic
Activity [30]: < 15%
Activity [31]: Non-Toxic
Activity [32]: < 10%

IC50 [20]: > 25 µM
IC50 [21]: > 25 µM
concentration at 24 h [22]: 6140 ng/g
Kp at 24 h [23]: 0.9
SMILES: CC(C)(C)[C@@H]1Cc2c(nc3c(C(F)(F)F)cc(C4CC4)cn23)-c2[nH]c(=O)c(C(=O)O)cc21

— ChEMBL document CHEMBL6127124, “Structure-Activity Relationships and Discovery of (S)-5-(tert-Butyl)-11-(difluoromethoxy)-9-methoxy-2-oxo-1,2,5,6-tetrahydropyrido[2',1':2,3]imidazo[4,5-h]quinoline-3-carboxylic Acid (AB-161), a Novel Orally Available and Liver-Centric HBV RNA Destabilizer” (J Med Chem, 2024)
